B1: Streptococcus pyogenes δ subunit (holA gene product) (other)
chain: MIAIEKIEKLSKENLGLITLVTGDDIGQYSQLKSRLMEQIAFDKDDLAYSYFDMSEAAYQDAEMDLVSLPFFAEQKVVIFDHLLDITTNKKSFLKEKDLKAFEAYLENPLETTRLIIFAPGKLDSKRRLVKLLKRDALVLEANPLKEAELRTYFQKYSHQLGLGFESGAFDQLLLKSNDDFSQIMKNMAFLKAYKKTGNISLTDIEQAIPKSLQDNIFDLTRLVLGGKIDAARDLIHDLRLSGEDDIKLIAIMLGQFRLFLQLTILARDVKNEQQLVISLSDILGRRVNPYQVKYALKDSRTLSLAFLTGAVKTLIETDYQIKTGLYEKSYLVDIALLKIMTHSQK
notes: also called delta; putative δ
B2: Streptococcus pyogenes τ subunit (dnaX gene product) (other)
chain: MYQALYRKYRSQTFDEMVGQSVISTTLKQAVESGKISHAYLFSGPRGTGKTSAAKIFAKAMNCPNQVDGEPCNQCDICRDITNGSLEDVIEIDAASNNGVDEIRDIRDKSTYAPSRATYKVYIIDEVHMLSTGAFNALLKTLEEPTENVFILATTELHKIPATILSRVQRFEFKAIKQKAIREHLAWVLDKEGIAYEVDALNLIARRAEGGMRDALSILDQALSLSPDNQVAIAIAEEITGSISILALGDYVRYVSQEQATQALAALETIYDSGKSMSRFATDLLTYLRDLLVVKAGGDNQRQSAVFDTNLSLSIDRIFQMITVVTSHLPEIKKGTHPRIYAEMMTIQLAQKEQILSQVNLSGELISEIETLKNELAQLKQQLSQLQSRPDSLARSDKTKPKTTSYRVDRVTILKIMEETVRNSQQSRQYLDALKNAWNEILDNISAQDRALLMGSEPVLANSENAILAFEAAFNAEQVMSRNNLNDMFGNIMSKAAGFSPNILAVPRTDFQHIRKEFAQQMKSQKDSVQEEQEVALDIPEGFDFLLDKINTIDD
notes: also called tau; DnaX-protein

Key:
Pol II = details: cited from earlier work
Pol III-L = Pol III-L (Bacillus subtilis, UniProt P13267); details: Pol III / Pol III-L; cited from earlier work
Peak4 (Pol III-L) = biological target: T1, Peak4 (Pol III-L) (Staphylococcus aureus, UniProt P0C1P9); assay: DNA polymerase assay in presence or absence of pCMB, NEM, 0.15 M KCl; assay type: biochemical; details: S. aureus Peak4
T1 construct: peak 4 (last peak off Mono Q); endogenous in cells; host or cells: S. aureus strain 4220 lysate, MonoQ peak 4 (partially pure)
T1 sequence (P0C1P9 1-1435): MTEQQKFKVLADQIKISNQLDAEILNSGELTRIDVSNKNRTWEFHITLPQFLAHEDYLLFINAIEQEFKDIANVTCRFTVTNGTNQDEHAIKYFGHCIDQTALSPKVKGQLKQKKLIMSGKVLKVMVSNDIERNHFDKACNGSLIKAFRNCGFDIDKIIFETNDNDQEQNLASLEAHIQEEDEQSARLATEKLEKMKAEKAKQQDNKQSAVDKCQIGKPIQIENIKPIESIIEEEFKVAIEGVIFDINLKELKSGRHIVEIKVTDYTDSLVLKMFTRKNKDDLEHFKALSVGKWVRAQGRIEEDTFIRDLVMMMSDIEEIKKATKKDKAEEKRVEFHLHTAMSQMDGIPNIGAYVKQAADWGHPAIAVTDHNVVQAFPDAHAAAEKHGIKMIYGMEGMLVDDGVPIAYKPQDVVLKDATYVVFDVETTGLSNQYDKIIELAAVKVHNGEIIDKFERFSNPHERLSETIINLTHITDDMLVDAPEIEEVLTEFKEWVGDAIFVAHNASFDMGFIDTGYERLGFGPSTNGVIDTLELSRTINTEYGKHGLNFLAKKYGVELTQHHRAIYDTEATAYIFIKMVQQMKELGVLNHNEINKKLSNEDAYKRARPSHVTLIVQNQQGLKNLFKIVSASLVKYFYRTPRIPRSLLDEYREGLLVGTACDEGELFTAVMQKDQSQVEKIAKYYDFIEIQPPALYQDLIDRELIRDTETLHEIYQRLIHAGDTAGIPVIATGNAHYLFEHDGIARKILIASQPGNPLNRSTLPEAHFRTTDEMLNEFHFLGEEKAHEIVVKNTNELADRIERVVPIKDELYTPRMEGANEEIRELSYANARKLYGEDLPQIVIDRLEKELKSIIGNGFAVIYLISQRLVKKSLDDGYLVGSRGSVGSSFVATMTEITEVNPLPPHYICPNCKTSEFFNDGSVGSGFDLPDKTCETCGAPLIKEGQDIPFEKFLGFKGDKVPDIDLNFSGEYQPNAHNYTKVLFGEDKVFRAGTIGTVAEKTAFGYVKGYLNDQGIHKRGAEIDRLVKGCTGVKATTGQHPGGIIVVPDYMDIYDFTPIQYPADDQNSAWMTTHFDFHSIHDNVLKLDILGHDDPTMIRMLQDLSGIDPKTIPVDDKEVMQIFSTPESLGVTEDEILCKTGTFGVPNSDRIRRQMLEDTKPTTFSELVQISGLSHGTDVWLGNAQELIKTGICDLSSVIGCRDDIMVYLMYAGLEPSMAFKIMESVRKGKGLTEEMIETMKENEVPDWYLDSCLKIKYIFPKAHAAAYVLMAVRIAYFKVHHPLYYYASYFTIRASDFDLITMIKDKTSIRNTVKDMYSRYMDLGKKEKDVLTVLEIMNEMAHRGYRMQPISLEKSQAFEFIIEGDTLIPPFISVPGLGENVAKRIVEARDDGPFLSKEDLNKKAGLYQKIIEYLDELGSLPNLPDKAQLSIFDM
Method: (§1) These assays were used in the purification of DNA polymerases from S. aureus cell extracts. Assays contained 2.5 μg activated calf thymus DNA in a final volume of 25 μl replication buffer. An aliquot of the fraction to be assayed was added to the assay mixture on ice followed by incubation at 37° C. for 5 min. DNA synthesis was quantitated using DE81 paper as described in Rowen et al., “Primase, the DnaG Protein of Escherichia coli. An Enzyme Which Starts DNA Chains,” J. Biol. Chem., 253:758-764 (1979), which is hereby incorporated by reference.
(§2) Next, it was determined which of these peaks of DNA polymerase activity correspond to DNA polymerases 1, I, and III, and which peak is the unidentified DNA polymerase. In the Gram positive bacterium B. subtilis, Pol III is inhibited by pCMB, NEM, and 0.15 M NaCl, Pol II is inhibited by KCl, but not NEM or 0.15 M KCL, and Pol I is not inhibited by any of these treatments (Gass et al., “Further Genetic and Enzymological Characterization of the Three Bacillus subtilis Deoxyribonucleic Acid Polymerases,” J. Biol. Chem., 248:7688-7700 (1973), which is hereby incorporated by reference).

Pol I = Pol I (Bacillus subtilis, UniProt O34996); details: cited from earlier work
Peak2 (Pol II) = assay: DNA polymerase assay in presence or absence of pCMB, NEM, 0.15 M KCl; assay type: biochemical, Staphylococcus aureus; details: S. aureus Peak2
Method: as §1, §2

Peak3 (Pol I) = assay: as above; assay type: biochemical, Staphylococcus aureus; details: S. aureus Peak3
Method: (§3) These assays were used in the purification of DNA polymerases from S. aureus cell extracts. Assays contained 2.5 μg activated calf thymus DNA in a final volume of 25 μl replication buffer. An aliquot of the fraction to be assayed was added to the assay mixture on ice followed by incubation at 37° C. for 5 min.
(§4) Next, it was determined which of these peaks of DNA polymerase activity correspond to DNA polymerases 1, I, and III, and which peak is the unidentified DNA polymerase. In the Gram positive bacterium B. subtilis, Pol III is inhibited by pCMB, NEM, and 0.15 M NaCl, Pol II is inhibited by KCl, but not NEM or 0.15 M KCL, and Pol I is not inhibited by any of these treatments (Gass et al., “Further Genetic and Enzymological Characterization of the Three Bacillus subtilis Deoxyribonucleic Acid Polymerases,” J. Biol. Chem., 248:7688-7700 (1973), which is hereby incorporated by reference). […] Peak 3 clearly corresponded to Pol I, because it was not inhibited by NEM, pCMB, or 0.15 M NaCl. Peak 2 correspond to Pol II, because it was not inhibited by NEM, but was inhibited by pCMB and 0.15 M NaCl. Peaks 1 and 4 both had characteristics that mimic Pol III; however, peak 4 elutes on MonoQ at a similar position as Pol III-L expressed in E. coli (see FIG. 2B).

Peak1 (new polymerase) = assay: as above; assay type: biochemical, Staphylococcus aureus; details: S. aureus Peak1
Method: as §3, §4

[1] = biological target: Staphylococcus aureus beta subunit (dnaN gene product) (Staphylococcus aureus) (UniProt P0A022); assay: cell-based or functional assay
[2] = biological target: T2, Streptococcus pyogenes δ′ subunit (holB gene product) (Streptococcus pyogenes); assay: gel filtration on Superose 6 of an α-large, τ, δ, δ′ mixture, SDS-PAGE of fractions
T2 construct: also called delta prime; 6′
T2 chain: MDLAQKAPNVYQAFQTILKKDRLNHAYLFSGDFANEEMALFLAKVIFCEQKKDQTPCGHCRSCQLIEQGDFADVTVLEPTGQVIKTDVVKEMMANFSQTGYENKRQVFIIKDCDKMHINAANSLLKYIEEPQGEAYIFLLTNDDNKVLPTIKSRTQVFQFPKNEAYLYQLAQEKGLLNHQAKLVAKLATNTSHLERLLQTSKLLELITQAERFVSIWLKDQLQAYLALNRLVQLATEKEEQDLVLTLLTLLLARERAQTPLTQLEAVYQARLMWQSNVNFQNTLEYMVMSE

[3] = biological target: B1; assay: gel filtration on Superose 6 in buffer A with 100 mM NaCl, SDS-PAGE of fractions
[4] = biological target: T2, Streptococcus pyogenes δ′ subunit (holB …); assay: as above

Pol III-L, sequence (P13267 whole entry): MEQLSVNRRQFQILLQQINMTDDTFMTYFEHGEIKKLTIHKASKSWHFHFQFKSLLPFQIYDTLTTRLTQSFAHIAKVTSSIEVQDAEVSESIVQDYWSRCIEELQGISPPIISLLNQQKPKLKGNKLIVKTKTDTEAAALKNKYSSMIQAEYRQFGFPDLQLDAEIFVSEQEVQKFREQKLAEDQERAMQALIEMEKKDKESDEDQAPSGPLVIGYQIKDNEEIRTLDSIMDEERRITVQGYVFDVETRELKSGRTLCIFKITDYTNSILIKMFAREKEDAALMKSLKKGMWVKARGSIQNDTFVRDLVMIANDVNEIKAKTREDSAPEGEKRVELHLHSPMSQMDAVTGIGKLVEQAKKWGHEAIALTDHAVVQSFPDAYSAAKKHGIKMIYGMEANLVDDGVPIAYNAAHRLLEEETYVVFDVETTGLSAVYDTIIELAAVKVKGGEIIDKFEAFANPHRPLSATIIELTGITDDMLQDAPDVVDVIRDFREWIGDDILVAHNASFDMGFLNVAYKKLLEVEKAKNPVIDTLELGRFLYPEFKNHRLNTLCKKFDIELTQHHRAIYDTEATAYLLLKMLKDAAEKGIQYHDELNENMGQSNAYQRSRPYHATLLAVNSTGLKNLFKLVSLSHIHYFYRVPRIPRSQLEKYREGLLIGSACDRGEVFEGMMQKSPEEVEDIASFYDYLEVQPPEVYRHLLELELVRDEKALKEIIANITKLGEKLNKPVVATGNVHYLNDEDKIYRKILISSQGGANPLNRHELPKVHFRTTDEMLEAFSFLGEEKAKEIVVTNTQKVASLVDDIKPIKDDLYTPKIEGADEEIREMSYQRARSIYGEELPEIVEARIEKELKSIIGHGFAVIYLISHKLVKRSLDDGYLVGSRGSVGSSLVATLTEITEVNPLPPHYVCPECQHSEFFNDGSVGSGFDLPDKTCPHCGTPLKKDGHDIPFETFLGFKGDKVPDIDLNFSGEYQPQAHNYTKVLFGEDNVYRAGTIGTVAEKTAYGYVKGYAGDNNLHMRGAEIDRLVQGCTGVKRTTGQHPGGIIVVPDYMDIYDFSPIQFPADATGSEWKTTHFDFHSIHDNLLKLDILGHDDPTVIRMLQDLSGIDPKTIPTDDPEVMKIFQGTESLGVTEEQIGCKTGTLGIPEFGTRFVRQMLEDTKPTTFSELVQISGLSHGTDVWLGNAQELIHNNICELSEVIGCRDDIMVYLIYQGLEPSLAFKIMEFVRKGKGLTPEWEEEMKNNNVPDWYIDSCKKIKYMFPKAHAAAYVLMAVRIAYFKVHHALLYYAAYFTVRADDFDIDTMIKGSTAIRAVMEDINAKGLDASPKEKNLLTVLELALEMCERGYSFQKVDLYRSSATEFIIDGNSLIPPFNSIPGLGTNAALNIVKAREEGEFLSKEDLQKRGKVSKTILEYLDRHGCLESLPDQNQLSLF
Pol I, sequence (O34996 whole entry): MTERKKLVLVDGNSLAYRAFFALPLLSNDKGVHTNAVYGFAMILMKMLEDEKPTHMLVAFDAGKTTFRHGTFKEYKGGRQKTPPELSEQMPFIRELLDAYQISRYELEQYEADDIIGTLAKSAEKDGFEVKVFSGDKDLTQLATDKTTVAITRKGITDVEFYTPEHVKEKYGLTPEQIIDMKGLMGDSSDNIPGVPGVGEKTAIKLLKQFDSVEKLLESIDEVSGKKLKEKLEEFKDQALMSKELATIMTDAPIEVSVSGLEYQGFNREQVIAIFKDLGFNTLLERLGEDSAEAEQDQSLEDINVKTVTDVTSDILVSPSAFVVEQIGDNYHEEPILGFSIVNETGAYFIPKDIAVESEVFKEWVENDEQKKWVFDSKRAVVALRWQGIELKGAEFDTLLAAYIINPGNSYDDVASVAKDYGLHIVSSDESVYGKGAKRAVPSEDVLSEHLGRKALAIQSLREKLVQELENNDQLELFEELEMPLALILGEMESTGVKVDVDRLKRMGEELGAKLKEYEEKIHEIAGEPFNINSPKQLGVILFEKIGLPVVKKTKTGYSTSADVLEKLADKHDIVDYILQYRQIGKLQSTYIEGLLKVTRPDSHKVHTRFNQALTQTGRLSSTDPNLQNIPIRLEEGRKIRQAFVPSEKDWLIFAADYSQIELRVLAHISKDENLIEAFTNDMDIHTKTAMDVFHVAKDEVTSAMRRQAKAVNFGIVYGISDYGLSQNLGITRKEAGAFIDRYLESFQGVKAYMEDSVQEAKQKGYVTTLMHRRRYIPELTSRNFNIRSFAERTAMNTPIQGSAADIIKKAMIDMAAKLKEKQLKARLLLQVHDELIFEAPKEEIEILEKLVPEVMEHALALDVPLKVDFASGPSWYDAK

Row | Molecule | Expected characteristics: inhibition of polymerase activity (Pol II) | Expected characteristics: inhibition of polymerase activity (Pol III-L) | Observed characteristics: inhibition of polymerase activity (Peak4 (Pol III-L)) | Expected characteristics: inhibition of polymerase activity (Pol I) | Observed characteristics: inhibition of polymerase activity (Peak2 (Pol II)) | Observed characteristics: inhibition of polymerase activity (Peak3 (Pol I)) | Observed characteristics: inhibition of polymerase activity (Peak1 (new polymerase)) | other results
1 | CCN1C(=O)C=CC1=O [NEM] | not inhibited (Not inhibited is defined as greater than 75% remaining activity) | inhibited (Inhibited is defined as less than 40% remaining activity) | inhibited (Inhibited is defined as less than 40% remaining activity) | not inhibited (Not inhibited is defined as greater than 75% remaining activity) | not inhibited (Not inhibited is defined as greater than 75% remaining activity) | not inhibited (Not inhibited is defined as greater than 75% remaining activity) | inhibited (Inhibited is defined as less than 40% remaining activity) | –
2 | O=C(O)c1cc[c]([Hg][Cl])cc1 [pCMB] | inhibited** (Inhibited is defined as less than 40% remaining activity) | inhibited (Inhibited is defined as less than 40% remaining activity) | inhibited (Inhibited is defined as less than 40% remaining activity) | not inhibited* (Not inhibited is defined as greater than 75% remaining activity) | inhibited (Inhibited is defined as less than 40% remaining activity) | not inhibited (Not inhibited is defined as greater than 75% remaining activity) | inhibited (Inhibited is defined as less than 40% remaining activity) | –
3 | Escherichia coli clamp loader complex (gamma complex: gamma, delta, delta prime, chi, psi) (from UniProt P06710 2-431; P28630 1-343; P28631 1-334; P28905 1-147; P28632 1-137) | – | – | – | – | – | – | – | Total DNA synthesis on circular singly primed M13mp18 ssDNA, lane 3 (Pol III-L, S. aureus beta and E. coli clamp loader complex; lane 1 Pol III-L alone 0.6 pmol) [1]: 0.99 pmol
4 | B1 | – | – | – | – | – | – | – | binding result [2]: binds
5 | B2 | – | – | – | – | – | – | – | binding result [3]: no binding (tested: δ (200 µg) in 100 µl); binding result [4]: no binding (tested: δ′ (200 µg) in 100 µl)
